Laboratory results published in paper PMC5702617, “Novel peptide probes to assess the tensional state of fibronectin fibers in cancer” (Nature Communications, 2017).
Values joined by “and” are separate entries in the source; they are usually repeats but may differ in a detail not shown here. Equal values may be shown once. Residues, ends and D or L forms follow the SMILES beside them. No end group written: not given here. *: point of attachment. X1 = O=C(O)CN1CCN(CC(=O)O)CCN(C(CCC(=O)NCCN2C(=O)CC(*)C2=O)C(=O)O)CC1

Key:
[1] = In vitro plasma stability; format: in vitro ADME, human; details: 37°C, 1 hour time point, RP-HPLC, means from three experiments
Description: The stability of peptides in blood is often limited as they are rapidly cleaved by catalytic enzymes found in tissue and blood, resulting in a short biological half-life. […] To verify whether the FnBPA5 peptide can be used for in vivo applications, we next performed a plasma stability test. The metabolic stability of the peptide radiotracer ^111In-FnBPA5 was tested in vitro by incubating the radiolabeled FnBPA5 at 37°C with human blood plasma, or water as control. The unbound peptide fraction was separated from the plasma proteins at different time points (0, 1, 24, 48, and 72 h) and was analyzed by reversed-phase high-pressure liquid chromatography (RP-HPLC).
After that, the samples were filtrated using a Thomson Single StEP Filter vial 0.45 μm PVDF (Thomson Instrument Company, Oceanside, USA) and the supernatant was analyzed by reversed-phase HPLC (Varian Prostar HPLC System, SpectraLab Scientific Inc., Canada) using a D-Bio Discovery Wide Pore C18 column (25 cm × 4.6 mm; 5 μm).

[2] = Biodistribution in PC-3 tumor grafted mice; format: in vivo, mouse; details: female, CD1 nude, mouse, in vivo, iv, total radioactivity; 1 h p.i.; PC-3 grafted mice, i.v. 150 kBq (2.4 nmol, 100 µL PBS), γ counter, mean ± SD, n = 4; read-out: Biodistribution, Kidneys
Description: (§1) Experiments were performed 3–4 weeks after inoculation.
(§2) For the biodistribution experiments, PC-3 tumor grafted mice were injected into the tail vein with 150 kBq ^111In-FnBPA5 or ^111In-scrambled FnBPA5 (2.4 nmol, 100 µL PBS). For each peptide, groups of four mice were sacrificed at 1, 4, 24, and 96 h post injection. Blocking experiment (n = 4) was performed by injection of an excess of peptide (100 µg, 24 nmol in 100 µL PBS) directly before the administration of the corresponding radiolabeled peptide. The organs were collected, weighed and counted for activity with a γ counter (Packard Cobra II Auto, Gamma, PerkinElmer AG, Schwerzenbach, Switzerland) 4 h p.i. The results were expressed as a percentage of injected activity per gram of tissue (% IA per g tissue). The Student's t test analyses were considered as type 3 (two sample unequal variance) and statistical significance was assumed for p-values smaller than 0.05.

PC-3-bearing mice [3] = assay: Biodistribution in PC-3 tumor grafted mice; format: in vivo, mouse; details: PC-3 grafted mice, i.v. 150 kBq (2.4 nmol, 100 µL PBS), γ counter, mean ± SD, n = 4
Description: as §1, §2

PC-3-bearing mice [4] = assay: In vivo blocking experiment in PC-3 tumor grafted mice; parameters: species or system mouse; details: n = 4
Description: as §2

PC-3-bearing mice [5] = assay: SPECT/CT imaging of PC-3-bearing mice; format: in vivo, mouse
Description: Thirty-three days from the inoculation of the tumor cells, the mice were intravenously injected with ~15 MBq ^111In-FnBPA5 resp. ^111In-scrambled FnBPA5-NODAGA (2.4 nmol, 100 µL PBS) into the tail vein. […] The images were reconstituted and processed with InVivoScope® software (Bioscan Inc., Washington DC, USA).

[6] = target: fibronectin N-terminal fragments (Homo sapiens) (UniProt P02751); details: cited from earlier work
[7] = target: Fn fibers in PC-3 xenograft tumor tissue of CD1 nude mice (not stated (human PC-3 xenograft in CD1 nude mouse)) (UniProt P11276)
[8] = target: Fn fibers in PC-3 xenograft tumor tissue of CD1 nude mice (not stated (human PC-3 xenograft in CD1 nude mouse)) (UniProt P11276); remark: listed apart in the source
[9] = target: T1, fibronectin isolated from human plasma (human, UniProt P02751 32-2477, in the fibers 5% of the protein was Cy5-labeled (Cy5-maleimide on the cryptic cysteines at FnIII7 and FnIII15)); assay: fluorescence polarisation; anisotropy titration; 100 nM Alexa-488 labeled peptide in PBS, Fn titrated from 0 to 1.4 μM, 20 °C; one-site-binding model; three independent measurements; details: both partners purified
[10] = target: T1, fibronectin isolated from human plasma; assay: single Fn fiber binding assay (confocal microscopy, intensity ratio peptide-Alexa488 / Fn-Cy5); Fn fibers (95% unlabeled, 5% Cy5-labeled) manually pulled onto a silicone sheet and relaxed to about 7% strain; blocked with BSA; varying concentrations of peptide for 1 h, washed, imaged; ratio at 10 μM set to 1; details: both partners purified
[11] = 4h p.i. blocking: corresponding unlabeled peptide (24 nmol) i.v. directly before the radiolabeled peptide, PC-3 grafted mice, mean ± SD

Fn fibers in PC-3 xenograft tumor tissue of CD1 nude mice (not stated (human PC-3 xenograft in CD1 nude mouse)), sequence (P11276 33-2477): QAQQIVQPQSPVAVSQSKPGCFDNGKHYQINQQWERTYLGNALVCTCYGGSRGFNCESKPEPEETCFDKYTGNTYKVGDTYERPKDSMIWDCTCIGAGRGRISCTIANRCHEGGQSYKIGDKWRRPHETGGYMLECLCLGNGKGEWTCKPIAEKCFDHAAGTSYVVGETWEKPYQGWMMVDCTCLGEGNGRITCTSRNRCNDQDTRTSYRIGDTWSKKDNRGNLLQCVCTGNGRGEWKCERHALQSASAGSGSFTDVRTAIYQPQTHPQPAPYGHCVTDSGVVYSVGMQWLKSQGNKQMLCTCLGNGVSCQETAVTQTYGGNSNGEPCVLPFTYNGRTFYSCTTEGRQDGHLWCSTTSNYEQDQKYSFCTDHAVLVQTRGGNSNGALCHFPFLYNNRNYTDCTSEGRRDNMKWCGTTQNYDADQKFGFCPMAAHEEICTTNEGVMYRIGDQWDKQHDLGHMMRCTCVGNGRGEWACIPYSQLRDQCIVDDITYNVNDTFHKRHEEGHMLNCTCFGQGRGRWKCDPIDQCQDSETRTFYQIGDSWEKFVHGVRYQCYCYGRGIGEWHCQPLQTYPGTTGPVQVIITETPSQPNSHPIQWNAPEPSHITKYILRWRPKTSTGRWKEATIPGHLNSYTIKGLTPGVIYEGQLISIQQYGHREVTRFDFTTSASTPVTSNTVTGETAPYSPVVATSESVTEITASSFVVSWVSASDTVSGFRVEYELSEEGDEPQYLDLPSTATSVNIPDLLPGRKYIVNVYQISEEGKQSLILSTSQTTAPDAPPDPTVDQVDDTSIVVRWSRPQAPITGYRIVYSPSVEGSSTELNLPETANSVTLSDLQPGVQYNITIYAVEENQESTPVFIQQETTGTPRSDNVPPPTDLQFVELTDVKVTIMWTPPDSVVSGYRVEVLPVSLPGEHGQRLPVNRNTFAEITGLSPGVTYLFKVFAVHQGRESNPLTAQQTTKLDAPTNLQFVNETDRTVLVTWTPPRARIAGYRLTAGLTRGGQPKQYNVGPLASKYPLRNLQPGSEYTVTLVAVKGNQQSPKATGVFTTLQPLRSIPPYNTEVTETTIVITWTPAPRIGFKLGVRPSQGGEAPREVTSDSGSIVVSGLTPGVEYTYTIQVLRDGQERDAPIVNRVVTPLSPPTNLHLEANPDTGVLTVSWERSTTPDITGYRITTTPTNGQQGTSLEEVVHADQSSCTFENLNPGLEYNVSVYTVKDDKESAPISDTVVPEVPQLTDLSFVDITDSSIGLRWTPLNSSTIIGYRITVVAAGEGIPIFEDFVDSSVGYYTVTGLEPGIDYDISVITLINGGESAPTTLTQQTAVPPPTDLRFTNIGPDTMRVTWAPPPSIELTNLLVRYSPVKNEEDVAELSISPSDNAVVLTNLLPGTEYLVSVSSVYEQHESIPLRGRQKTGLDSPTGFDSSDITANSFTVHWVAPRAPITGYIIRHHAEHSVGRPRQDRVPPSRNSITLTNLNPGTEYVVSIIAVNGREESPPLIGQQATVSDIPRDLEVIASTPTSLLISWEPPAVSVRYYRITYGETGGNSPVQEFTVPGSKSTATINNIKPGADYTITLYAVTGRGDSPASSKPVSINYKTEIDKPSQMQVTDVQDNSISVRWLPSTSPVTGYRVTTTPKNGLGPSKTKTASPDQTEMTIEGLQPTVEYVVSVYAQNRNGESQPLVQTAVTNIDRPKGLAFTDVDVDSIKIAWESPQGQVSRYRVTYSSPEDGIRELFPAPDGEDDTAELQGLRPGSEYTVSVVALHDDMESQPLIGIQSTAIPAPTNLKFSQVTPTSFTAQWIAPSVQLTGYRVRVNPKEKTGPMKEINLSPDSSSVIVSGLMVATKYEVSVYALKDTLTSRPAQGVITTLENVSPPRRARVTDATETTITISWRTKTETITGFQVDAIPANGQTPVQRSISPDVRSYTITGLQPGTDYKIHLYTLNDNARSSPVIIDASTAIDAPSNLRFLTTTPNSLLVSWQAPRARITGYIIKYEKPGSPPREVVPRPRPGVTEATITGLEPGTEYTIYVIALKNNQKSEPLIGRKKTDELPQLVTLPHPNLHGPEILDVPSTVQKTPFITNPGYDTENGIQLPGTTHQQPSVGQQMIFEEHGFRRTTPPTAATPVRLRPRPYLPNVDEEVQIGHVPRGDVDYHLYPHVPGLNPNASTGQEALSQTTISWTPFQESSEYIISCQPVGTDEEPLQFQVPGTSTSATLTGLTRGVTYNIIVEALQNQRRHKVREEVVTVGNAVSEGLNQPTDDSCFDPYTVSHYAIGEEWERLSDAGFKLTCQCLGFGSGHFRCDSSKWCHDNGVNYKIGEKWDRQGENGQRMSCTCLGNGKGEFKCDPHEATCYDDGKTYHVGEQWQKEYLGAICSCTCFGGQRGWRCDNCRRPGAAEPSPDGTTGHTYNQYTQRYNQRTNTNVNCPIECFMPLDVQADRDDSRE
fibronectin N-terminal fragments (Homo sapiens), sequence (P02751 50-273): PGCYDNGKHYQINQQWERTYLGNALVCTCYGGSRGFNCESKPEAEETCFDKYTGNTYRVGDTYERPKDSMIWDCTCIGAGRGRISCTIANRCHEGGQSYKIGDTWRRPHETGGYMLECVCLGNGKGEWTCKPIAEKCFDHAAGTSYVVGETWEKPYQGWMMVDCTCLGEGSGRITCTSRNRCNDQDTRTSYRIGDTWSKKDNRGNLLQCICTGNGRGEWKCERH
FnBPA5, sequence (P14738 636-672): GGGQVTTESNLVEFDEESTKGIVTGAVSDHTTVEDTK

## CC[C@H](C)[C@H](NC(=O)[C@@H](NC(=O)[C@H](CCC(=O)O)NC(=O)CNC(=O)[C@H](Cc1ccccc1)NC(=O)[C@H](CC(=O)O)NC(=O)[C@@H](NC(=O)[C@H](CCCCN)NC(=O)[C@@H](NC(=O)CNC(=O)[C@@H](NC(=O)[C@H](CC(C)C)NC(=O)[C@H](CC(=O)O)NC(=O)[C@H](CCC(=O)O)NC(=O)[C@H](CCC(N)=O)NC(=O)[C@H](CCC(=O)O)NC(=O)[C@H](CO)NC(=O)CNC(=O)[C@@H](N)CSC1CC(=O)N(CCNC(=O)CCC(C(=O)O)N2CCN(CC(=O)O)CCN(CC(=O)O)CC2)C1=O)[C@@H](C)O)[C@@H](C)O)C(C)C)[C@@H](C)O)C(=O)N[C@H](C(=O)N[C@H](C(=O)N[C@@H](CC(N)=O)C(=O)N[C@@H](CCC(=O)O)C(=O)N[C@@H](C)C(=O)N[C@H](C(=O)N[C@@H](CCC(=O)O)C(=O)N[C@H](C(=O)N[C@H](C(=O)N[C@H](C(=O)N[C@@H](CO)C(=O)NCC(=O)N[C@@H](CO)C(=O)N[C@H](C(=O)N[C@@H](Cc1c[nH]cn1)C(=O)NCC(=O)N[C@H](C(=O)N[C@@H](CCCCN)C(=O)N[C@H](C(=O)O)C(C)C)[C@@H](C)O)[C@@H](C)O)[C@@H](C)O)C(C)C)[C@@H](C)O)[C@@H](C)O)C(C)C)C(C)C (stereo partly drawn) [111In-scrambled FnBPA5, metal not drawn] (H-C(X1)GSEQEDLTGTKVDFGETIVVNEATETVTSGSTHGTKV-OH; N-terminus and C-terminus assumed)
[1]
  stability in human blood plasma: high stability
[2]
  tissue uptake at 1 h: 163 ± 18 %ID/g
PC-3-bearing mice [3]; 1 h p.i.
  Biodistribution, Blood: 0.26 ± 0.064 IA% / g
  Biodistribution, Bone: 0.15 ± 0.035 IA% / g
  Biodistribution, Heart: 0.12 ± 0.03 IA% / g
  Biodistribution, Intestines: 0.09 ± 0.01 IA% / g
  Biodistribution, Kidneys: 163.70 ± 18.90 IA% / g
  Biodistribution, Liver: 0.10 ± 0.02 IA% / g
  Biodistribution, Lung: 0.19 ± 0.03 IA% / g
  Biodistribution, Muscle: 0.09 ± 0.025 IA% / g
  Biodistribution, Pancreas: 0.78 ± 0.295 IA% / g
  Biodistribution, Spleen: 0.21 ± 0.039 IA% / g
  Biodistribution, Stomach: 0.12 ± 0.013 IA% / g
  Biodistribution, Tumor: 0.27 ± 0.08 IA% / g
PC-3-bearing mice [3]; 4 h p.i.
  Biodistribution, Blood: 0.07 ± 0.008 IA% / g and 0.07 ± 0.01 IA% / g
  Biodistribution, Bone: 0.10 ± 0.01 IA% / g
  Biodistribution, Heart: 0.06 ± 0.006 IA% / g
  Biodistribution, Intestines: 0.04 ± 0.012 IA% / g and 0.04 ± 0.01 IA% / g
  Biodistribution, Kidneys: 151.43 ± 9.056 IA% / g and 151.43 ± 9.06 IA% / g
  Biodistribution, Liver: 0.08 ± 0.026 IA% / g and 0.08 ± 0.03 IA% / g
  Biodistribution, Lung: 0.08 ± 0.005 IA% / g and 0.08 ± 0.01 IA% / g
  Biodistribution, Muscle: 0.04 ± 0.019 IA% / g and 0.04 ± 0.02 IA% / g
  Biodistribution, Pancreas: 0.64 ± 0.549 IA% / g and 0.64 ± 0.55 IA% / g
  Biodistribution, Spleen: 0.13 ± 0.036 IA% / g and 0.13 ± 0.03 IA% / g
  Biodistribution, Stomach: 0.06 ± 0.006 IA% / g
  Biodistribution, Tumor: 0.14 ± 0.02 IA% / g
PC-3-bearing mice [3]; 24 h p.i.
  Biodistribution, Blood: 0.04 ± 0.005 IA% / g
  Biodistribution, Bone: 0.09 ± 0.021 IA% / g
  Biodistribution, Heart: 0.04 ± 0.005 IA% / g
  Biodistribution, Intestines: 0.03 ± 0.00 IA% / g
  Biodistribution, Kidneys: 104.62 ± 9.412 IA% / g
  Biodistribution, Liver: 0.07 ± 0.010 IA% / g
  Biodistribution, Lung: 0.05 ± 0.006 IA% / g
  Biodistribution, Muscle: 0.08 ± 0.026 IA% / g
  Biodistribution, Pancreas: 0.21 ± 0.162 IA% / g
  Biodistribution, Spleen: 0.14 ± 0.048 IA% / g
  Biodistribution, Stomach: 0.04 ± 0.017 IA% / g
  Biodistribution, Tumor: 0.09 ± 0.01 IA% / g
PC-3-bearing mice [3]; 96 h p.i.
  Biodistribution, Blood: 0.02 ± 0.005 IA% / g
  Biodistribution, Bone: 0.13 ± 0.036 IA% / g
  Biodistribution, Heart: 0.04 ± 0.005 IA% / g
  Biodistribution, Intestines: 0.02 ± 0.010 IA% / g
  Biodistribution, Kidneys: 23.63 ± 9.883 IA% / g
  Biodistribution, Liver: 0.05 ± 0.005 IA% / g
  Biodistribution, Lung: 0.04 ± 0.014 IA% / g
  Biodistribution, Muscle: 0.04 ± 0.013 IA% / g
  Biodistribution, Pancreas: 0.06 ± 0.016 IA% / g
  Biodistribution, Spleen: 0.10 ± 0.029 IA% / g
  Biodistribution, Stomach: 0.04 ± 0.029 IA% / g
  Biodistribution, Tumor: 0.16 ± 0.08 IA% / g
PC-3-bearing mice [4]; 24 nmol unlabeled peptide pre-injected, 4 h p.i., Student's t test
  effect of pre-injection of unlabeled peptide on accumulation: no significant differences
PC-3-bearing mice [4]; [11]
  Biodistribution with blocking, Blood: 0.07 ± 0.01 IA% / g
  Biodistribution with blocking, Intestines: 0.07 ± 0.05 IA% / g
  Biodistribution with blocking, Kidneys: 128.81 ± 17.44 IA% / g
  Biodistribution with blocking, Liver: 0.08 ± 0.01 IA% / g
  Biodistribution with blocking, Lung: 0.10 ±0.03 IA% / g
  Biodistribution with blocking, Muscle: 0.04 ± 0.00 IA% / g
  Biodistribution with blocking, Pancreas: 1.41 ±1.25 IA% / g
  Biodistribution with blocking, Spleen: 0.18 ± 0.03 IA% / g
  Biodistribution with blocking, Stomach: 0.08 ± 0.04 IA% / g
  Biodistribution with blocking, Tumor: 0.14 ± 0.04 IA% / g
PC-3-bearing mice [5]; ~15 MBq (2.4 nmol, 100 µL PBS) i.v., up to 96 h p.i.
  SPECT/CT distribution: mainly accumulated in the kidneys
PC-3-bearing mice [5]; ~15 MBq i.v., 96 h p.i., post mortem, kidneys removed
  SPECT/CT distribution after kidney removal: no uptake was visible

## FnBPA5 (from UniProt P14738)
[6]
  Kd: 44.2 nM

## ^natIn-FnBPA5 (cold labeled) / ^111In-FnBPA5 (peptide)
[7]
  tumor uptake of ^111In-FnBPA5 in PC-3-bearing mice, biodistribution at 1, 4, 24 and 96 h p.i. (maximum at 1 h p.i.): 4.74 % IA per g
[8]
  change of ^111In-FnBPA5 uptake in the liver 4 h p.i. after pre-injection of a 10-fold excess of unlabeled FnBPA5 (24 nmol): -58.2%
  change of ^111In-FnBPA5 uptake in the tumor 4 h p.i. after pre-injection of a 10-fold excess of unlabeled FnBPA5 (24 nmol): -35.6%

## {C(Alexa488)}-GQVTTESNLVEFDEESTKGIVTGAVSDHTTVEDTK [FnBPA5-Alexa488]
[9]
  Kd: 75 nM
[10]
  Kd: 28 nM
